Results published in patent US20210177941A1, “COMPOSITIONS FOR CHANGING BODY COMPOSITION, METHODS OF USE, AND METHODS OF TREATMENT” (Board of Supervisors of Louisiana State University and …, priority 2014, published 2021).
Ends that are not written are not given here.

Legend:
IGF1R mRNA = IGF1R mRNA expression in RMS13 cells; format: cell-based, human; settings: 24 h; pramlintide 1 mm, albuterol 0.25 mm, P/A 1 mm/0.25 μm
Experimental: (§1) Working in concert with UPS signaling is the myostatin pathway. By binding to ActRIIB, myostatin activates type-1 activin receptor serine kinases, ALK4 or ALK5, which phosphorylate Smads 2 and −3 (key biomarkers) to exert changes in gene transcription (above figure). […] To measure pathways regulating muscle atrophy and protein syntheses, the following key mRNA biomarkers were assayed: 1) Atrophy: MSTN, Atrogin-1, MuRF1, FoxO1, FoxO3, ALK4, Smad 1, Smad 3; 2) Anabolic: IGF1R, PGC1a, PGC1b, mitochondrial-FAM.
(§2) All RMS13 cells were treated for 24 hours with single or combination doses (n=10 each group). […] However, there was a strong trend for down regulation in P/A; […] treated cells for MuRF1 (34±7 vs. 22±5, p=0.068; PBS control vs. P/A; 1 mm/0.25 μm respectively) and Smad3 (91 ±9 vs. 73±9, p=0.055; PBS control vs. P/A; 1 mm/0.25 μm respectively).

PGC1a mRNA = PGC1a mRNA expression in RMS13 cells; format: cell-based, human; settings: 24 h; pramlintide 1 mm, albuterol 0.25 mm, P/A 1 mm/0.25 μm
Experimental: as §1, §2

[1] = test system: Atrogin-1, MuRF1, FoxO1, ALK4, Smad 1, Smad 3, PGC1b and TFAM mRNA; test: myoblast transcriptome biomarker panel in RMS13 cells; format: cell-based, human; settings: 24 h; albuterol 0.25 mm, pramlintide 1 mm, P/A 1 mm/0.25 μm
Experimental: as §1, §2

FoxO3 mRNA = FoxO3 mRNA expression in RMS13 cells; format: cell-based, human; settings: 24 h; pramlintide 1 mm, albuterol 0.25 mm, P/A 1 mm/0.25 μm
Experimental: as §1, §2

myostatin mRNA = myostatin mRNA expression in RMS13 cells; format: cell-based, human
Experimental: as §1, §2
Pramlintide is chiefly used as an adjunct […] in type 1 and type 2 diabetes to help manage glycemia. The action of the two hormones complements one another to better control glucose metabolism and energy balance. We investigated whether pramlintide with or without insulin could modulate myostatin (key biomarker) mRNA. […] This negative result provides important rationale for both preclinical and clinical study designs (see below). Amylin is thought to function as a neuroendocrine hormone (Young, 1997) and has been shown over many decades to have an effect of lowering food intake. When given intracerebroventricularly (icv), amyl in reduces food intake and body weight in rodents in a dose-dependent manner (Rushing et al., 2001). […] Amylin is thought to regulate energy balance by inhibiting postprandial glucagon secretion and slowing the rate of nutrient delivery to the small intestine via an effect on gastric emptying. The rate of gastric emptying also plays a major role in blood glucose homeostasis in normal subjects by controlling the delivery of carbohydrate to the small intestine and the regulation of body weight (Reda et al., 2002). It has been proposed that amylin's effect on gastric emptying may be exerted via a central mechanism involving specific binding sites in the area postrema of the brain stem (Cline et al., 2008), and that the effect is mediated by the vagus nerve rather than a direct action on the stomach and digestion (D'Este et al., 1995; Maev and Dicheva, 2003). We have previously shown that the use of modified-pharmaceutical grade cellulose is able to dramatically slow the rate of gastric emptying and improve the lean-to-fat ratio in mice (Islam et al., 2012).
Calcitonin can be used therapeutically for the treatment of hypercalcemia or osteoporosis. Both calcitonin and amylin bind the same trimetric-calcitonin-ramp-receptor. An increased incidence of pituitary adenomas has been reported in rats given synthetic salmon calcitonin for 1 year. Calcitonin may be used diagnostically as a tumor marker for medullary thyroid cancer; also, elevated levels after surgery may indicate recurrence. Calcitonin may even be assayed in biopsy samples from suspicious lesions (e.g., lymph nodes that are swollen) to establish whether they are a metastasis of the original cancer (Bruera and Fainsinger, 1997; Busquets et al., 2012b). We next examined the dose-dependence relationship between the concentration of calcitonin and myostatin mRNA expression.

[2] = In Vivo Study 1: body weight and body composition by NMR, 8 weeks; parameters: species or system B6 mice; settings: for muscle gain and body fat reduction: monotherapy: pramlintide 30 and 60 mg/kg/day, albuterol 24 mg/day
Experimental: Based on our in vitro experiments, we hypothesized that we could synergize muscle gain and improved biology with a combination of low doses of amylin (or agonist) and albuterol (or agonist). This study determined the effect of daily peripheral administration of pramlintide for 2-months on body weight, body composition and food intake in healthy, elderly mice.
Murine subjects were divided into seven treatment groups (total n=12): Group 1) SC […] vehicle (PBS); Group 2) SC 15 mg/kg/mouse of pramlintide; Group 3) SC 30 mg/kg/mouse of pramlintide; Group 4) SC 60 mg/kg/mouse of pramlintide; […]); Group 6) Albuterol 0.250 mg/kg. […]
The mice were housed in single cages with a 12:12 light cycle, and allowed ad libitum access to food and water throughout the experiment. On day-1 food was weighed and an amount sufficient to last weekly intervals was provided. For the first two-weeks, food intake and body weight were monitored daily and thereafter biweekly for the remainder of the experiment. Body composition by NMR-spectroscopy was the primary endpoint, measured at Day-1 and at the end of the protocol (8-weeks). At Day-5, the mice were randomized to treatment and control groups, such that each group had the same mean body weight. Mice were allowed to acclimate for 5-days to being the sole mouse in the cage. Each day mice were dosed 1 hour after lights on, and the 2nd dosing two hours prior to lights out when mice initiate feeding. Pramlintide was taken directly from the FDA-approved Symlin drug (pramlintide acetate) obtained through the Pennington Biomedical Research Center (PBRC) pharmacy. Final injection volumes were […] for vehicle or drugs. Symlin was supplied as a sterile drug at 0.6 mg/ml. All doses were adjusted according to this concentration.
Food intake in grams was measured manually each 24 hours. Body Composition was determined via NMR using a Bruker mini-spec system designed for rat or mouse. Animals were transported in microisolater covered cages to the designated room containing the NMR. […]

[3] = 7-week placebo controlled study in young, healthy BL-male mice; format: in vivo; settings: for lean body mass (LBM): all treatment-arms (Gr 2-7); for bodyweight from baseline and relative to placebo control: pramlintide 30 and 60 mg/kg (Gr 3, 4), Salbutamol 24 mg (Gr 5), combinations (Gr 6, 7)
Experimental: In a recent pharmacology assessment in young, healthy BL-male mice, we completed a 7-week placebo controlled (Gr 1) study with treatment-arms that included the use of pramlintide alone at low (Gr 2. 15 mg/kg); mid (Gr 3. 30 mg/kg) and high (Gr 4. 60 mg/kg) or Salbutamol alone (Gr 5. 24 mg) or combined with Pramlintide (Gr 6. 15 mg/kg +12 mg of Salbutamol; Gr 7. 30 mg/kg +12 mg of Salbutamol).

[4] = in vivo; cited from earlier work
[5] = test system: mammalian target of rapamycin (mTOR); test: mTOR activation in human myoblast RMS13 cells; format: cell-based; settings: pramlintide alone at 1 and 5 mm, 24 h, both p<0.05
From the text: We first examined the association between a pramlintide and albuterol formulation (single and combination dosing) on the activity of the mammalian target of rapamycin (mTOR) in a human myoblast cell model derived from RMS13 cells (purchased from ATCC, Manassas, Va., USA). mTOR is a highly conserved kinase that exists in two functional complexes, TOR complex 1 (TORC1) and TOR complex 2 (TORC2), that are conserved from yeast to mammals. Given its high conservation across species, mTOR serves as a key biomarker for protein synthesis. mTOR (TORC1 and TORC 2) is a master kinase that is crucial for cell growth and is a chief enzyme in protein synthesis (Otulakowski et al., 2007). Determining optimal ratios and concentrations of each drug (in single or combination) was an important first step to guide the mechanism of action biomarker studies. This initial study was undertaken for 24 and 48 hours; only the 24-hour results are shown (n=6 each group).

human myoblast = human myoblast treated 24 h with pramlintide, biomarkers; format: cell-based; settings: 24 h pramlintide
From the text: Although not intending to be bound by theory, we hypothesize the amylin pathway has a role in the regulation of muscle mass in mammals and the use of pramlintide will result in improved body composition and increase muscle mass in healthy humans by lowering the production of myostatin and increasing protein synthesis via mTOR activation.

myostatin secretion = myostatin secretion into RMS13 myoblast culture media; format: cell-based, human; settings: pramlintide 1 mm (p=0.061); P/A 1 mm/0.25 mm (p<0.05, greatest suppression)
From the text: Myostatin's main sites of actions are muscle and bone in a catabolic fashion. Both IGF1 and amylin have roles in regulating osteoblast-bone proliferation (Cornish et al., 2004; Cornish and Naot, 2002) and muscle mass. […] Although not intending to be bound by theory, we hypothesize that amylin alone and in combination with albuterol is able to directly suppress myostatin secretion in myoblasts.

[6] = 24 h, pramlintide 1 mm, albuterol 0.25 mm, P/A 1 mm/0.25 μm
[7] = calcitonin dose-dependence, pramlintide 5 mm, p<0.05

Molecule	IGF1R mRNA expression (IGF1R mRNA)	PGC1a mRNA expression (PGC1a mRNA)	Atrogin-1, MuRF1, FoxO1, ALK4, Smad 1, Smad 3, PGC1b and TFAM mRNA [1]	FoxO3 mRNA expression (FoxO3 mRNA)	myostatin mRNA expression (myostatin mRNA; [6])	muscle gain and body fat reduction [2]	lean body mass (LBM) [3]	bodyweight from baseline and relative to placebo control [3]	myostatin mRNA expression (myostatin mRNA; [7])	myostatin mRNA, pramlintide with or without insulin (myostatin mRNA; co-incubation of insulin with pramlintide)	T-1/2-life [4]	mTOR activation [5]	myostatin and FoxO-1/-3 mRNA (human myoblast)	pro-anabolic targets (PGC1a, calcineurin mRNA and AkT and mTOR-activity) (human myoblast)	myostatin secretion into myoblast culture media (myostatin secretion)	drop in body weight within the first week ([2]; pramlintide 60 mg/kg/day (Group 4))
CC(C)(C)NCC(O)c1ccc(O)c(CO)c1 (stereo not shown) [albuterol]	up regulated	up regulated	no change	down regulated	no effect	Statistical improvements in muscle gain and body fat reduction	significantly increased	significant increases in bodyweight	–	–	–	–	–	–	–	–
calcitonin (CGNLSTCMLGTYTQDFNKFHTFPQTAIGVGAP; ends and bridges not checked; cysteine pairing not given here; UniProt P01258 85-116, looked up)	–	–	–	–	–	–	–	–	did not modulate myostatin mRNA	–	–	–	–	–	–	–
insulin	–	–	–	–	–	–	–	–	–	no additive benefit	–	–	–	–	–	–
pramlintide acetate	up regulated	up regulated	no change	significantly lowered	significantly lowered	Statistical improvements in muscle gain and body fat reduction	significantly increased	significant increases in bodyweight	able to lower myostatin mRNA	–	~45 min	induced mTOR activation	down regulation of myostatin	elevation of pro-anabolic targets	lowered myostatin secretion	−5%
